Data as given in ChEMBL document CHEMBL4196016, “Regioselective synthesis of 7-O-esters of the flavonolignan silibinin and SARs lead to compounds with overadditive neuroprotective effects” (Eur J Med Chem, 2018).
Calls of active or inactive are those of the source. No cut-off for these calls is given here.

Legend:
[1] = system: BV-2; test: Antiinflammatory activity in mouse BV2 cells assessed as inhibition of LPS-induced microglial activation after 24 hrs by Griess reagent based assay; type: functional, cell-based; details: BV-2, 24 h
[2] = target: T1, Microtubule-associated protein tau (Homo sapiens, UniProt P10636); test: Inhibition of tau (unknown origin) aggregation expressed in Escherichia coli (DE3) at 10 uM incubated for overnight by Th-S fluorescence staining based UV-Vis spectrophotometer (reference value: 0.0 +/- 1.4%)
T1 sequence (P10636 whole entry): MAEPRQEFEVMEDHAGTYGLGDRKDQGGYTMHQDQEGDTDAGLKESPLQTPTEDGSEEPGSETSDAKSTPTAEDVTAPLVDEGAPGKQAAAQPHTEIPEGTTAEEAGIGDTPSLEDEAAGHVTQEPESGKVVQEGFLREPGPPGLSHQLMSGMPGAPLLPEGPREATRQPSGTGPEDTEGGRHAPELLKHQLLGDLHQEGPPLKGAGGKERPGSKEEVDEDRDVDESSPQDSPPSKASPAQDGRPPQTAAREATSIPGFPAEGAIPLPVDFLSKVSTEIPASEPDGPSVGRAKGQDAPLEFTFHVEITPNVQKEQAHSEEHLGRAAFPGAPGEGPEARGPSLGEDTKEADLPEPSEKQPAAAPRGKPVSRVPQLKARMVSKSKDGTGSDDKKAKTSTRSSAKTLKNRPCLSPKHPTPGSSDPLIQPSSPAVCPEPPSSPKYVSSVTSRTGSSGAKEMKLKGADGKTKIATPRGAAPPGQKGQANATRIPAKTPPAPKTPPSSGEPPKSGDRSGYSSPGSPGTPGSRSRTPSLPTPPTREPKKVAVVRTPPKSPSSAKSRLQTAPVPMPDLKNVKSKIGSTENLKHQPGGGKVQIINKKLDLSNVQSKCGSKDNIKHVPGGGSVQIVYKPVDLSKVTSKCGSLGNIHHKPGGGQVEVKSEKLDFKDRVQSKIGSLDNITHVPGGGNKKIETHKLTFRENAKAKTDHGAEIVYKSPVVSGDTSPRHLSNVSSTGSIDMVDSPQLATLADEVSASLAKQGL

[3] = system: HT-22; test: Neuroprotective activity against IAA-induced ischemia in mouse HT22 cells assessed as increase in cell viability cotreated with IAA for 2 hrs followed by IAA wash out measured after 24 hrs by MTT assay; type: functional, cell-based
[4] = target: T2, Amyloid-beta precursor protein (Homo sapiens, UniProt P05067); test: Inhibition of amyloid beta 42 (unknown origin) expressed in Escherichia coli BL21 (DE3) aggregation at 10 uM incubated for overnight by Th-S fluorescence staining based UV-Vis spectrophotometer (reference value: 0 +/- 1%)
T2 sequence (P05067 whole entry): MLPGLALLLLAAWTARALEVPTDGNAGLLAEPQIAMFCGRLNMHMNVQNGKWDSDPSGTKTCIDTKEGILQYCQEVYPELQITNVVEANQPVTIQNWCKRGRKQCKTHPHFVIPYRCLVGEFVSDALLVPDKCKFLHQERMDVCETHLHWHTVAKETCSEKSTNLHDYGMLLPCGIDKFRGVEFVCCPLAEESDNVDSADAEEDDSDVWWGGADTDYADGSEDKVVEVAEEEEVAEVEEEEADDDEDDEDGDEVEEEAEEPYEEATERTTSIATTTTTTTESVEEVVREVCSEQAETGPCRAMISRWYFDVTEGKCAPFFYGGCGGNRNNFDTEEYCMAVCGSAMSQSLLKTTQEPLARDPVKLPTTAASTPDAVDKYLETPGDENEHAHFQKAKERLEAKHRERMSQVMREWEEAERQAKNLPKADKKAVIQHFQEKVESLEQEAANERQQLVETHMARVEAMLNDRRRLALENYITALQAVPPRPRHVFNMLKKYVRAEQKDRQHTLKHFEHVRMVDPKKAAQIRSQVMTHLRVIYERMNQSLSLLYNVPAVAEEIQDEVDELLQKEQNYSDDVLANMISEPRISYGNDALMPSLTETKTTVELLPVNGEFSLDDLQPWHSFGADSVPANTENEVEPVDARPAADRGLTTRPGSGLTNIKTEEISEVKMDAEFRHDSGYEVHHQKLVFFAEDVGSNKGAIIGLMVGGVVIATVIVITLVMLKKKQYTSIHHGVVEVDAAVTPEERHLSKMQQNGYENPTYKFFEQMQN

[5] = target: T2, Amyloid-beta precursor protein; test: Inhibition of amyloid beta 42 (unknown origin) expressed in Escherichia coli BL21 (DE3) aggregation incubated for overnight by Th-S fluorescence staining based UV-Vis spectrophotometer
[6] = system: HT-22; test: Neurotoxicity against mouse HT22 cells assessed as decrease in cell viability at 10 uM measured after 24 hrs by MTT assay; type: toxicity, cell-based; details: ht-22, 24 h
[7] = Antioxidant activity assessed as reduction of Fe3+-TPTZ to Fe2+-TPTZ measured every 15 secs for 4 mins by FRAP assay; type: functional
[8] = system: PC-12; test: Induction of rat PC12 cells differentiation assessed as neurite outgrowth at 10 uM after 24 hrs relative to control; type: functional
[9] = target: T1, Microtubule-associated protein tau; test: Inhibition of tau (unknown origin) aggregation expressed in Escherichia coli (DE3) at 100 uM incubated for overnight by Th-S fluorescence staining based UV-Vis spectrophotometer (reference value: 0.0 +/- 2.4%)
[10] = target: T2, Amyloid-beta precursor protein; test: Inhibition of amyloid beta 42 (unknown origin) expressed in Escherichia coli BL21 (DE3) aggregation at 100 uM incubated for overnight by Th-S fluorescence staining based UV-Vis spectrophotometer (reference value: 0 +/- 4.4%)
[11] = target: T1, Microtubule-associated protein tau; test: Inhibition of tau (unknown origin) aggregation expressed in Escherichia coli (DE3) incubated for overnight by Th-S fluorescence staining based UV-Vis spectrophotometer
[12] = system: HT-22; test: Neuroprotective activity against glutamate-induced mouse HT22 cells assessed as cell survival at 25 uM cotreated with glutamate measured after 24 hrs by MTT assay relative to control; type: functional
[13] = system: HT-22; test: Neuroprotective activity against glutamate-induced mouse HT22 cells assessed as increase in cell survival at 25 uM cotreated with glutamate measured after 24 hrs by MTT assay; type: functional, cell-based
[14] = system: HT-22; test: Neurotoxicity against mouse HT22 cells assessed as decrease in cell viability at 25 uM using 1:1 test compound to silibinin ratio measured after 24 hrs by MTT assay; type: toxicity, cell-based; details: ht-22, 24 h
[15] = system: HT-22; test: Neurotoxicity against mouse HT22 cells assessed as decrease in cell viability at 25 uM measured after 24 hrs by MTT assay; type: toxicity, cell-based; details: ht-22, 24 h
[16] = Antioxidant activity assessed as reduction of Fe3+-TPTZ to Fe2+-TPTZ using 1:1 test compound to silibinin ratio measured every 15 secs for 4 mins by FRAP assay; type: functional
[17] = system: HT-22; test: Neuroprotective activity against glutamate-induced mouse HT22 cells assessed as increase in cell survival at 1 to 25 uM using 1:1 test compound to silibinin ratio cotreated with glutamate measured after 24 hrs by MTT assay; type: functional, cell-based
[18] = system: HT-22; test: Neuroprotective activity against glutamate-induced mouse HT22 cells assessed as increase in cell survival at 1 to 25 uM cotreated with glutamate measured after 24 hrs by MTT assay; type: functional, cell-based
[19] = system: HT-22; test: Neuroprotective activity against glutamate-induced mouse HT22 cells assessed as increase in cell survival at 10 uM cotreated with glutamate measured after 24 hrs by MTT assay; type: functional, cell-based
[20] = system: HT-22; test: Neuroprotective activity against glutamate-induced mouse HT22 cells assessed as increase in cell survival at 25 to 50 uM cotreated with glutamate measured after 24 hrs by MTT assay; type: functional, cell-based
[21] = system: HT-22; test: Neuroprotective activity against glutamate-induced mouse HT22 cells assessed as increase in cell survival at 5 to 25 uM cotreated with glutamate measured after 24 hrs by MTT assay; type: functional, cell-based
[22] = Metabolic stability of the compound in human pooled plasma assessed as compound remaining at 50 uM after 4 hrs by LCMS analysis; type: ADME, cell-free; details: read-out: Stability
[23] = Drug metabolism in human pooled plasma assessed as cleavage of ester bond at 50 uM up to 24 hrs by LCMS analysis; type: ADME, cell-free
[24] = system: HT-22; test: Neuroprotective activity against glutamate-induced mouse HT22 cells assessed as cell survival at 10 to 25 uM cotreated with glutamate measured after 24 hrs by MTT assay relative to control; type: functional
[25] = Half life in human pooled plasma at 50 uM up to 24 hrs by LCMS analysis; type: ADME, cell-free
[26] = Stability of the compound in assay medium at 50 uM by LCMS analysis; type: physicochemical; details: TDE = time-dependent effect
[27] = Metabolic stability of the compound in human pooled plasma at 50 uM by LCMS analysis; type: ADME, cell-free; details: TDE = time-dependent effect
[28] = Drug metabolism in human pooled plasma assessed as 7-Oferuloyl-2,3-dehydrosilibinin formation at 50 uM up to 24 hrs by LCMS analysis; type: ADME, cell-free
[29] = Stability of the compound in assay medium at 50 uM after 24 hrs by LCMS analysis; type: physicochemical; details: read-out: Stability
[30] = Antioxidant activity assessed as reduction of Fe3+-TPTZ to Fe2+-TPTZ using equimolar mixture of test compound and silibinin measured every 15 secs for 4 mins by FRAP assay; type: functional
[31] = Antioxidant activity assessed as reduction of Fe3+-TPTZ to Fe2+-TPTZ using 1:1 test compound to ferulic acid ratio measured every 15 secs for 4 mins by FRAP assay; type: functional
[32] = system: HT-22; test: Neurotoxicity against mouse HT22 cells assessed as decrease in cell viability at 25 uM using 1:1 test compound to ferulic acid ratio measured after 24 hrs by MTT assay; type: toxicity, cell-based; details: ht-22, 24 h
[33] = system: HT-22; test: Neuroprotective activity against glutamate-induced mouse HT22 cells assessed as increase in cell survival at 1 to 25 uM using 1:1 test compound to ferulic acid ratio cotreated with glutamate measured after 24 hrs by MTT assay; type: functional, cell-based
[34] = Antioxidant activity assessed as ferric ion reduction by measuring FeSO4 equivalents reducing Fe3+-TPTZ to Fe2+-TPTZ measured every 15 secs for 4 mins by FRAP assay; type: functional
[35] = Antioxidant activity assessed as reduction of Fe3+-TPTZ to Fe2+-TPTZ using equimolar mixture of test compound and cinnamic acid measured every 15 secs for 4 mins by FRAP assay; type: functional
[36] = system: HT-22; test: Neurotoxicity against mouse HT22 cells assessed as decrease in cell viability at 25 uM using 1:1 test compound to cinnamic acid ratio measured after 24 hrs by MTT assay; type: toxicity, cell-based; details: ht-22, 24 h

COc1cc(/C=C/C(=O)Oc2cc(O)c3c(c2)O[C@H](c2ccc4c(c2)O[C@H](c2ccc(O)c(OC)c2)[C@@H](CO)O4)[C@@H](O)C3=O)ccc1O
EC50 [1]: 9.8 µM
inhibition [2]: 36.8%
EC50 [3]: 1.4 µM
inhibition [4]: 13.2%
IC50 [5]: 85.5 µM
Activity [6]: Toxic
Activity [7]: Active
Activity [8]: 50%
inhibition [9]: 67.2%
inhibition [10]: 52.7%
IC50 [11]: 27.2 µM

O=c1c(O)c(-c2ccc(O)c(O)c2)oc2cc(O)cc(O)c12 [QUERCETIN]
Survival [12]: 80%

COc1cc(C(=O)Oc2cc(O)c3c(c2)O[C@H](c2ccc4c(c2)OC(c2ccc(O)c(OC)c2)C(CO)O4)[C@@H](O)C3=O)ccc1O (stereo partly specified)
Activity [7]: Active
Activity [13]: Active

COc1cc(/C=C/C(=O)O)ccc1O [FERULATE]
Activity [14]: Toxic
EC50 [1]: > 10 µM
Activity [15]: Non-Toxic
EC50 [3]: > 10 µM
Activity [16]: Active
Activity [17]: inactive
Activity [18]: inactive
Activity [7]: Active
Activity [8]: inactive

COc1cc(C2Oc3cc([C@H]4Oc5cc(OC(=O)c6ccccc6)cc(O)c5C(=O)[C@@H]4O)ccc3OC2CO)ccc1O (stereo partly specified)
Activity [7]: inactive
Activity [13]: inactive

COc1cc(C2Oc3cc([C@H]4Oc5cc(OC(=O)/C=C/c6ccccc6)cc(O)c5C(=O)[C@@H]4O)ccc3OC2CO)ccc1O (stereo partly specified)
Activity [19]: Active
EC50 [1]: 4.2 µM
inhibition [2]: 37.1%
Activity [15]: Non-Toxic
Activity [20]: Active
EC50 [3]: 1.5 µM
inhibition [4]: 17.1%
Activity [7]: inactive
Activity [8]: 40%
Activity [21]: Active
inhibition [9]: 76.1%
inhibition [10]: 61.1%
Activity [13]: inactive

COc1cc(C2Oc3cc([C@H]4Oc5cc(OC(=O)/C=C/c6ccc7c(c6)OC(C)(C)O7)cc(O)c5C(=O)[C@@H]4O)ccc3OC2CO)ccc1O (stereo partly specified)
Activity [19]: Active
Activity [20]: Active
Activity [7]: inactive
Activity [13]: inactive

COc1cc(/C=C/C(=O)Oc2cc(O)c3c(c2)O[C@H](c2ccc4c(c2)OC(c2ccc(O)c(OC)c2)C(CO)O4)[C@@H](O)C3=O)ccc1O (stereo partly specified)
EC50 [1]: 6.5 µM
remaining at 4 h, 50 µM [22]: 20%
inhibition [2]: 30.4%
Activity [15]: Toxic
EC50 [3]: > 10 µM
Drug metabolism [23]: Metabolite_Detected
Survival [24]: 50%
inhibition [4]: 16.8%
half-life at 50 µM [25]: 1.5 h
Stability [26]: Tde
Stability [27]: Tde
Drug metabolism [28]: Metabolite_Notdetected
Activity [7]: Active
Activity [8]: 47%
inhibition [9]: 64.7%
remaining at 24 h, 50 µM [29]: 25%
inhibition [10]: 54.4%

COc1cc(C2Oc3cc([C@H]4Oc5cc(OC(=O)c6ccc7c(c6)OC(C)(C)O7)cc(O)c5C(=O)[C@@H]4O)ccc3OC2CO)ccc1O (stereo partly specified)
Activity [19]: Active
Activity [7]: inactive
Activity [13]: inactive

COc1cc(C2Oc3cc([C@H]4Oc5cc(OC(=O)/C=C/c6cc(OC)c(O)c(OC)c6)cc(O)c5C(=O)[C@@H]4O)ccc3OC2CO)ccc1O (stereo partly specified)
Activity [20]: Active
Activity [7]: Active

O=C(O)/C=C/c1ccccc1 [CINNAMIC ACID]
Activity [14]: Toxic
EC50 [1]: > 10 µM
EC50 [3]: > 10 µM
Activity [7]: inactive
Activity [8]: inactive
Activity [30]: Active

COc1cc(C2Oc3cc([C@H]4Oc5cc(O)cc(O)c5C(=O)[C@@H]4O)ccc3OC2CO)ccc1O (stereo partly specified) [SILIBININ]
EC50 [1]: > 10 µM
Activity [31]: Active
inhibition [2]: 2%
Activity [32]: Toxic
Activity [15]: Non-Toxic
Activity [33]: inactive
EC50 [3]: > 10 µM
inhibition [4]: 4.8%
Activity [18]: inactive
Activity [34]: 0.6 equiv
Activity [8]: 38%
Activity [35]: Active
inhibition [9]: 10.1%
inhibition [10]: 16%
Activity [36]: Toxic

COc1cc(C2Oc3cc([C@H]4Oc5cc(OC(=O)CCc6ccccc6)cc(O)c5C(=O)[C@@H]4O)ccc3OC2CO)ccc1O (stereo partly specified)
Activity [20]: inactive
Activity [7]: inactive

COc1cc(C2Oc3cc([C@H]4Oc5cc(OC(=O)c6cc(OC)c(O)c(OC)c6)cc(O)c5C(=O)[C@@H]4O)ccc3OC2CO)ccc1O (stereo partly specified)
Activity [7]: Active
Activity [13]: Active

Cc1c(C)c2c(c(C)c1O)CCC(C)(C(=O)O)O2 (stereo unspecified)
Activity [34]: 1.8 equiv

COc1cc(/C=C/C(=O)Oc2cc(O)c3c(c2)O[C@H](c2ccc4c(c2)O[C@@H](c2ccc(O)c(OC)c2)[C@H](CO)O4)[C@@H](O)C3=O)ccc1O
Activity [19]: Active
EC50 [1]: 10.1 µM
inhibition [2]: 44.5%
EC50 [3]: 2.2 µM
inhibition [4]: 14.2%
IC50 [5]: 43.6 µM
Activity [6]: Toxic
Activity [7]: Active
Activity [8]: 67%
inhibition [9]: 84%
inhibition [10]: 73%
IC50 [11]: 12.9 µM

COc1cc(C2Oc3cc([C@H]4Oc5cc(O)cc(O)c5C(=O)[C@@H]4O)ccc3OC2COC(=O)/C=C/c2ccccc2)ccc1O (stereo partly specified)
Activity [19]: inactive
Activity [13]: Active

COc1cc(C2Oc3cc([C@H]4Oc5cc(OC(=O)CCc6cc(OC)c(O)c(OC)c6)cc(O)c5C(=O)[C@@H]4O)ccc3OC2CO)ccc1O (stereo partly specified)
Activity [20]: inactive
Activity [7]: Active

COc1cc(CCC(=O)Oc2cc(O)c3c(c2)O[C@H](c2ccc4c(c2)OC(c2ccc(O)c(OC)c2)C(CO)O4)[C@@H](O)C3=O)ccc1O (stereo partly specified)
Activity [20]: inactive
Activity [7]: Active

O=C1O[C@H]([C@@H](O)CO)C(O)=C1O
Activity [34]: 2 equiv

COc1cc(C2Oc3cc([C@H]4Oc5cc(OC(=O)CCc6ccc7c(c6)OC(C)(C)O7)cc(O)c5C(=O)[C@@H]4O)ccc3OC2CO)ccc1O (stereo partly specified)
Activity [20]: inactive
Activity [7]: inactive
